From BindingDB's records for patent US11518761 (Vyera Pharmaceuticals, 2022) come the findings set out here.

By IC50 is commonly meant the midpoint of a concentration-inhibition curve.

The target in the test is T1, Calmodulin-domain protein kinase 1 (Toxoplasma gondii, UniProt Q9BJF5).
T1 sequence (Q9BJF5 whole entry): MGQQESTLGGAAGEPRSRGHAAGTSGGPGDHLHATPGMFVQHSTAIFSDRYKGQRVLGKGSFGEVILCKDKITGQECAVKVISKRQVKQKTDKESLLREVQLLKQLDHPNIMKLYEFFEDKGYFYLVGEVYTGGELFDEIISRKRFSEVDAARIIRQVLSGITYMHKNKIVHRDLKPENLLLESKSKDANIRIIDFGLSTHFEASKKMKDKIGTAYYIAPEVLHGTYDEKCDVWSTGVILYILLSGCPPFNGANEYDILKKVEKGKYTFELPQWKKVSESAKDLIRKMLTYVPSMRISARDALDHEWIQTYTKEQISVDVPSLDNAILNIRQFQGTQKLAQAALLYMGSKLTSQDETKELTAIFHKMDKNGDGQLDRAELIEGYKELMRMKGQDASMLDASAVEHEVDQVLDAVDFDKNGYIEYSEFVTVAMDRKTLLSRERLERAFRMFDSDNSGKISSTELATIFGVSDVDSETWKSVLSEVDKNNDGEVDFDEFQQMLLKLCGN
As to the kind of experiment: Inhibition Assay. The method, then: Certain of the compounds prepared as described above were assayed to determine their IC50 for inhibition of T. gondii CDPK1 (tgCDPK1). At least three independent replicates of the assay were conducted for each compound tested.

`N#Cc1cccc(Oc2nn([C@H]3C[C@H](F)C3)c3ncnc(N)c23)c1` [US11518761, Example 173] had an IC50 of 49.8 nM.

In turn, `N#Cc1cccc(Oc2nn([C@H]3C[C@H](O)C3)c3ncnc(N)c23)c1` [US11518761, Example 178] had an IC50 of 79.6 nM.
